In PMC6710338, “Turning a Collagenesis-Inducing Peptide Into a Potent Antibacterial and Antibiofilm Agent Against Multidrug-Resistant Gram-Negative Bacteria” (Frontiers in Microbiology, 2019):
Where two headings read alike, the source gives them in different places. Square brackets hold non-standard residues; d marks the D form. Peptide text beside a SMILES is read from it. * marks the point of attachment. Palmitoyl = CCCCCCCCCCCCCCCC(=O)*; βAla = NCCC(=O)O

How the values were obtained:
S. aureus ATCC 25923 = assay: MIC, broth microdilution (CLSI), ATCC reference strain; type: cell-based, Staphylococcus aureus
Experimental: (§1) The minimum inhibitory concentration (MIC) of synthetic peptides was determined using the broth microdilution method in cation-adjusted Mueller-Hinton broth (MHB2 – Sigma-Aldrich, St. Louis, MO, United States), according to the recommendations of the Clinical and Laboratory Standards Institute ([CLSI, 2012]), against four reference strains, namely, P. aeruginosa ATCC 27853, E. coli ATCC 25922, S. aureus ATCC 25923 and Enterococcus faecalis ATCC 29212. MIC values of peptide 3.1-PP4 were also determined against MDR clinical isolates of P. aeruginosa (PA002, PA004, Pa3, Pa4), E. coli (Ec1, Ec2, EC001, EC002, EC003) and K. pneumoniae (KP004, KP007, KP010). The peptides were tested in the concentration range of 1–1024 μg/mL. The minimum bactericidal concentration (MBC) was determined as previously reported ([Bessa et al., 2018]). According to CLSI guidelines for antimicrobial susceptibility testing, MIC values were determined for all peptides against ATCC reference strains of two Gram-positive (S. aureus ATCC 25923 and E. faecalis ATCC 29212), and two Gram-negative (P. aeruginosa ATCC 27853 and E. coli ATCC 25922) bacterial species, and are shown in Table 2.

HFF-1 cells = type: cell-based, human
Experimental: Immortalized human foreskin fibroblasts (HFF-1) were grown as a monolayer from passage number 8–16. For routine maintenance, HFF-1 cells were cultured in Dulbecco’s Modified Eagle Medium (DMEM, from Cell Lines Service) supplemented with 15% fetal bovine serum (FBS, from CLS) and 1% antibiotic/antimycotic solution (100 units/mL of penicillin, 100 μg/mL of streptomycin and 0.25 μg/mL of amphotericin B, from Sigma-Aldrich, St. Louis, MO, United States) at 37°C in an humidified atmosphere with 5% CO2. Cells were harvested by trypsinization [0.25% (w/v) trypsin-EDTA4Na, Sigma-Aldrich, St. Louis, MO, United States] twice a week.
The cytotoxicity of synthetic peptides to HFF-1 cells was evaluated using the standard MTT assay. Briefly, cells were seeded at a density of 8 × 10^4 cells/well onto 96-well plate and incubated at 37°C in a 5% CO2 atmosphere. Cells were allowed to grow for 48 h, and serially diluted peptide solutions (0.78–100 μM) were added to the wells. Then, cells were incubated for 72 h at 37°C, after which wells were washed once with phosphate buffered saline (PBS, Sigma-Aldrich, St. Louis, MO, United States), followed by addition of a 0.45 mg/mL MTT solution to each well. Crystals were allowed to form for 1.5 h. Reaction was stopped by rejecting the medium and addition of dimethylsulfoxide (DMSO, Sigma-Aldrich, St. Louis, MO, United States). Absorbance was read at 570 nm (Biotek PowerWave XS).
At the end of the cytotoxicity assays, the number of viable cells was never below that of initially plated cells. As such, data are represented as peptide concentrations causing 50% growth inhibition (IC50) on HFF-1 cells, rather than as lethal dosis values. IC50 values thus obtained are also included in Table 2.

P. aeruginosa ATCC 27853 = assay: MIC, broth microdilution (CLSI), ATCC reference strain; type: cell-based, Pseudomonas aeruginosa
Experimental: as §1

E. faecalis ATCC 29212 = assay: as above; type: cell-based, Enterococcus faecalis
Experimental: as §1

E. coli ATCC 25922 = assay: as above; type: cell-based, Escherichia coli
Experimental: as §1

[1] = S. aureus ATCC 25923, broth microdilution in MHB2, CLSI, range tested 1–1024 μg/mL
[2] = P. aeruginosa ATCC 27853, broth microdilution in MHB2, CLSI, range tested 1–1024 μg/mL
[3] = E. faecalis ATCC 29212, broth microdilution in MHB2, CLSI, range tested 1–1024 μg/mL
[4] = E. coli ATCC 25922, broth microdilution in cation-adjusted Mueller-Hinton broth (MHB2), CLSI, range tested 1–1024 μg/mL

MIC (S. aureus ATCC 25923; ATCC 25923)	MIC (P. aeruginosa ATCC 27853; ATCC 27853)	MIC (E. faecalis ATCC 29212; ATCC 29212)	MIC (E. coli ATCC 25922; ATCC 25922)	MIC (S. aureus ATCC 25923; [1])	MIC (P. aeruginosa ATCC 27853; [2])	MIC (E. faecalis ATCC 29212; [3])	MIC (E. coli ATCC 25922; [4])	SMILES	IC50 (HFF-1 cells; 72 h)	MIC (S. aureus ATCC 25923; S. aureus ATCC 25923, broth microdilution in MHB2, CLSI, value in parentheses)	IC50 (HFF-1 cells; 50% growth inhibition, MTT, 72 h incubation at 37°C, 0.78–100 μM, absorbance 570 nm, read-out: IC50 ± SEM on HFF-1 cells)	MIC (P. aeruginosa ATCC 27853; P. aeruginosa ATCC 27853, broth microdilution in MHB2, CLSI, value in parentheses)	MIC (E. faecalis ATCC 29212; E. faecalis ATCC 29212, broth microdilution in MHB2, CLSI, value in parentheses)	MIC (E. coli ATCC 25922; E. coli ATCC 25922, broth microdilution in MHB2, CLSI, value in parentheses)
4 µM	1 µM	8 µM	2 µM	–	–	–	–	CC(C)C[C@H](NC(=O)[C@H](CC(C)C)NC(=O)[C@H](CCCCN)NC(=O)[C@H](CC(C)C)NC(=O)[C@H](CC(C)C)NC(=O)[C@H](Cc1c[nH]c2ccccc12)NC(=O)[C@H](CCCCN)NC(=O)[C@H](CC(C)C)NC(=O)[C@H](CC(C)C)NC(=O)[C@H](CCCCN)NC(=O)[C@H](CCCCN)NC(=O)[C@H](CO)NC(=O)[C@H](CCCCN)NC(=O)[C@@H](NC(=O)[C@@H](NC(=O)[C@@H](N)CCCCN)[C@@H](C)O)[C@@H](C)O)C(N)=O [PP4-3.1] (H-KTTKSKKLLKWLLKLL-NH2)	25 ± 2 µM	–	–	–	–	–
> 1820 µM	> 1820 µM	> 1820 µM	> 1820 µM	–	–	–	–	C[C@@H](O)[C@H](NC(=O)[C@@H](NC(=O)[C@@H](N)CCCCN)[C@@H](C)O)C(=O)N[C@@H](CCCCN)C(=O)N[C@@H](CO)C(N)=O [PP4, reference compound] (H-KTTKS-NH2)	> 100 µM	–	–	–	–	–
29 µM	29 µM	29 µM	15 µM	64 µg/mL	64 µg/mL	64 µg/mL	32 µg/mL	CCCCCCCCCCCCCCCC(=O)N[C@@H](CCCCN)C(=O)N[C@H](C(=O)N[C@H](C(=O)N[C@@H](CCCCN)C(=O)N[C@@H](CO)C(=O)N[C@@H](CCCCN)C(=O)N[C@@H](CCCCN)C(=O)N[C@@H](CC(C)C)C(=O)N[C@@H](CC(C)C)C(=O)N[C@@H](CCCCN)C(=O)N[C@@H](Cc1c[nH]c2ccccc12)C(=O)N[C@@H](CC(C)C)C(=O)N[C@@H](CC(C)C)C(=O)N[C@@H](CCCCN)C(=O)N[C@@H](CC(C)C)C(=O)N[C@@H](CC(C)C)C(N)=O)[C@@H](C)O)[C@@H](C)O [Peptide C16-PP4-3.1] (Palmitoyl-KTTKSKKLLKWLLKLL-NH2)	4.98 ± 0.08 µM	–	–	–	–	–
–	–	–	–	–	–	–	–	CC(C)C[C@H](NC(=O)[C@H](CC(C)C)NC(=O)[C@H](CCCCN)NC(=O)[C@H](CC(C)C)NC(=O)[C@H](CC(C)C)NC(=O)[C@H](Cc1c[nH]c2ccccc12)NC(=O)[C@H](CCCCN)NC(=O)[C@H](CC(C)C)NC(=O)[C@H](CC(C)C)NC(=O)[C@H](CCCCN)NC(=O)[C@@H](N)CCCCN)C(N)=O [Peptide 3.1, reference compound] (H-KKLLKWLLKLL-NH2)	–	3 µM	50 ± 3 µM	3 µM	3 to 6 µM	6 µM
–	–	–	–	–	–	–	–	CCCCCCCCCCCCCCCC(=O)N[C@@H](CCCCN)C(=O)N[C@H](C(=O)N[C@H](C(=O)N[C@@H](CCCCN)C(=O)N[C@@H](CO)C(N)=O)[C@@H](C)O)[C@@H](C)O [Peptide C16-PP4, reference compound] (Palmitoyl-KTTKS-NH2)	> 100 µM	–	–	–	–	–
59 µM	29 µM	30 to 59 µM	29 µM	128 µg/mL	64 µg/mL	64 to 128 µg/mL	64 µg/mL	CCCCCCCCCCCCCCCC(=O)N[C@@H](CCCCN)C(=O)N[C@@H](CCCCN)C(=O)N[C@@H](CC(C)C)C(=O)N[C@@H](CC(C)C)C(=O)N[C@@H](CCCCN)C(=O)N[C@@H](Cc1c[nH]c2ccccc12)C(=O)N[C@@H](CC(C)C)C(=O)N[C@@H](CC(C)C)C(=O)N[C@@H](CCCCN)C(=O)N[C@@H](CC(C)C)C(=O)N[C@@H](CC(C)C)C(=O)N[C@@H](CCCCN)C(=O)N[C@H](C(=O)N[C@H](C(=O)N[C@@H](CCCCN)C(=O)N[C@@H](CO)C(N)=O)[C@@H](C)O)[C@@H](C)O [Peptide C16-3.1-PP4] (Palmitoyl-KKLLKWLLKLLKTTKS-NH2)	17.8 ± 0.5 µM	–	–	–	–	–
> 627 µM	78.4 µM	256 µg/mL	78.4 µM	> 1024 µg/mL	128 µg/mL	–	128 µg/mL	CCCCCCCCCCCCCCCC(=O)N[C@@H](CCCCN)C(=O)N[C@@H](CCCCN)C(=O)N[C@@H](CC(C)C)C(=O)N[C@@H](CC(C)C)C(=O)N[C@@H](CCCCN)C(=O)N[C@@H](Cc1c[nH]c2ccccc12)C(=O)N[C@@H](CC(C)C)C(=O)N[C@@H](CC(C)C)C(=O)N[C@@H](CCCCN)C(=O)N[C@@H](CC(C)C)C(=O)N[C@@H](CC(C)C)C(N)=O [Peptide C16-3.1] (Palmitoyl-KKLLKWLLKLL-NH2)	23.4 ± 0.7 µM	–	–	–	–	–
4 µM	2 µM	4 µM	2 µM	–	–	–	–	CC(C)C[C@H](NC(=O)[C@H](CC(C)C)NC(=O)[C@H](CCCCN)NC(=O)[C@H](CC(C)C)NC(=O)[C@H](CC(C)C)NC(=O)[C@H](Cc1c[nH]c2ccccc12)NC(=O)[C@H](CCCCN)NC(=O)[C@H](CC(C)C)NC(=O)[C@H](CC(C)C)NC(=O)[C@H](CCCCN)NC(=O)[C@H](CCCCN)NC(=O)CCNC(=O)[C@H](CO)NC(=O)[C@H](CCCCN)NC(=O)[C@@H](NC(=O)[C@@H](NC(=O)[C@@H](N)CCCCN)[C@@H](C)O)[C@@H](C)O)C(N)=O [PP4-β-ala-3.1] (H-KTTKS[βAla]KKLLKWLLKLL-NH2)	24 ± 2 µM	–	–	–	–	–
